Results taken from ChEMBL document CHEMBL1201862, “PubChem BioAssay data set” (2004).
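Step 1: Grow cells in 96-well plates. Step 2: Expose to compound for 48 hours at 5 concentrations. Step 3: Interpolate endpoints linearly; if unreached, use highest concentration. GI50: concentration for 50% inhibition of growth.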 Activity calls are given as the source filed them. Cut-off read from the data, not from the text of the source: active = GI50 up to about 1.1 µM and inactive = higher.

Key:
Experiment in all cases: DTP human tumour cell line panel, 48 h
HCT-116 = test system: HCT-116
SN12C = test system: SN12C
HL-60 = test system: HL-60
UACC-62 = test system: UACC-62
IGROV-1 = test system: IGROV-1
HOP-62 = test system: HOP-62
HCC 2998 = test system: HCC 2998
SF-539 = test system: SF-539
KM12 = test system: KM12
OVCAR-3 = test system: OVCAR-3
OVCAR-5 = test system: OVCAR-5
UACC-257 = test system: UACC-257
CAKI-1 = test system: CAKI-1
K562 = test system: K562
UO-31 = test system: UO-31
MCF7 = test system: MCF7
SK-MEL-5 = test system: SK-MEL-5
SNB-75 = test system: SNB-75
ACHN = test system: ACHN
M14 = test system: M14

| Structure (SMILES) | GI50 (HCT-116) | GI50 (SN12C) | GI50 (HL-60) | GI50 (UACC-62) | GI50 (IGROV-1) | GI50 (HOP-62) | GI50 (HCC 2998) | GI50 (SF-539) | GI50 (KM12) | GI50 (OVCAR-3) | GI50 (OVCAR-5) | GI50 (UACC-257) | GI50 (CAKI-1) | GI50 (K562) | GI50 (UO-31) | GI50 (MCF7) | GI50 (SK-MEL-5) | GI50 (SNB-75) | GI50 (ACHN) | GI50 (M14) |
| --- | --- | --- | --- | --- | --- | --- | --- | --- | --- | --- | --- | --- | --- | --- | --- | --- | --- | --- | --- | --- |
| CNC(=O)C(C)C1CCC2(C)C=CC(=O)C(C)=C2C1O (stereo unspecified) | > 100 µM (inactive) | > 100 µM (inactive) | > 100 µM (inactive) | > 100 µM (inactive) | > 55.2 µM (inactive) | > 100 µM (inactive) | 67.3 µM (inactive) | > 100 µM (inactive) | > 100 µM (inactive) | > 100 µM (inactive) | > 100 µM (inactive) | > 100 µM (inactive) | 28.5 µM (inactive) | > 100 µM (inactive) | > 43.3 µM (inactive) | > 100 µM (inactive) | > 39.6 µM (inactive) | > 100 µM (inactive) | – | – |
| O=c1sc(Nc2ccc3ccccc3c2Cl)nc2ccccc12 | > 100 µM (inactive) | > 100 µM (inactive) | 26.5 µM (inactive) | > 100 µM (inactive) | > 100 µM (inactive) | > 100 µM (inactive) | > 100 µM (inactive) | 73.8 µM (inactive) | > 100 µM (inactive) | > 100 µM (inactive) | > 100 µM (inactive) | > 100 µM (inactive) | 35.9 µM (inactive) | > 100 µM (inactive) | > 100 µM (inactive) | > 100 µM (inactive) | > 100 µM (inactive) | 49.3 µM (inactive) | > 100 µM (inactive) | – |
| Fc1cccc(C2ON=C(c3ccccc3)N2C23CC4CC(CC(C4)C2)C3)c1 (stereo unspecified) | > 10 µM (inactive) | > 10 µM (inactive) | > 10 µM (inactive) | > 10 µM (inactive) | > 10 µM (inactive) | > 10 µM (inactive) | > 10 µM (inactive) | > 10 µM (inactive) | > 10 µM (inactive) | > 10 µM (inactive) | > 10 µM (inactive) | > 10 µM (inactive) | > 10 µM (inactive) | > 10 µM (inactive) | – | > 10 µM (inactive) | > 10 µM (inactive) | > 10 µM (inactive) | > 10 µM (inactive) | > 10 µM (inactive) |
| O=c1ccn(C2OC(COC3CCCCO3)C(OC3CCCCO3)C2OC2CCCCO2)c(=O)n1-c1ccccc1 (stereo unspecified) | > 100 µM (inactive) | > 100 µM (inactive) | > 100 µM (inactive) | – | > 100 µM (inactive) | > 100 µM (inactive) | > 100 µM (inactive) | > 100 µM (inactive) | > 100 µM (inactive) | > 100 µM (inactive) | > 100 µM (inactive) | > 100 µM (inactive) | > 100 µM (inactive) | 91.6 µM (inactive) | > 100 µM (inactive) | > 100 µM (inactive) | > 100 µM (inactive) | > 100 µM (inactive) | > 100 µM (inactive) | > 100 µM (inactive) |
| C/C(=N\NC(=O)N/N=C(\C)c1ccccn1)c1ccccn1 | 0.336 µM (active) | 2.16 µM (inactive) | 0.0767 µM (active) | 40.9 µM (inactive) | 6.59 µM (inactive) | 0.512 µM (active) | 0.52 µM (active) | 0.188 µM (active) | 0.139 µM (active) | 45.1 µM (inactive) | > 52.6 µM (inactive) | > 100 µM (inactive) | 38.8 µM (inactive) | 0.118 µM (active) | 22.8 µM (inactive) | 7.16 µM (inactive) | 0.296 µM (active) | > 100 µM (inactive) | 18.2 µM (inactive) | 0.205 µM (active) |
| CCCCNC(=O)OCCN=C1c2ccccc2C(Br)C(Br)c2ccccc21 (stereo unspecified) | 23.3 µM (inactive) | 32.9 µM (inactive) | 9.04 µM (inactive) | > 100 µM (inactive) | 49.8 µM (inactive) | 25.9 µM (inactive) | > 100 µM (inactive) | 29.9 µM (inactive) | 45.6 µM (inactive) | 19.9 µM (inactive) | > 100 µM (inactive) | 26.8 µM (inactive) | 25.6 µM (inactive) | 29.9 µM (inactive) | – | 58.2 µM (inactive) | 18.7 µM (inactive) | 30.5 µM (inactive) | 24.2 µM (inactive) | 19.4 µM (inactive) |
| O=C(CCC(=O)OCC1OC(O)(CC2OC(CO)C(O)C(O)C2O)C(O)C1O)OCc1ccccc1 (stereo unspecified) | > 100 µM (inactive) | > 100 µM (inactive) | > 100 µM (inactive) | > 100 µM (inactive) | > 100 µM (inactive) | > 100 µM (inactive) | > 100 µM (inactive) | > 100 µM (inactive) | > 100 µM (inactive) | > 100 µM (inactive) | > 100 µM (inactive) | > 100 µM (inactive) | > 100 µM (inactive) | > 100 µM (inactive) | > 100 µM (inactive) | > 100 µM (inactive) | > 100 µM (inactive) | > 100 µM (inactive) | > 100 µM (inactive) | > 100 µM (inactive) |
| COC(=O)C1(OC(=O)Sc2ccccc2)CCN(C)CC1 | 14.9 µM (inactive) | 3.9 µM (inactive) | 5.96 µM (inactive) | 21.3 µM (inactive) | 4.75 µM (inactive) | 32.1 µM (inactive) | 28.6 µM (inactive) | 10.8 µM (inactive) | 10.9 µM (inactive) | 11 µM (inactive) | 35.3 µM (inactive) | 20.2 µM (inactive) | 4.95 µM (inactive) | 22.4 µM (inactive) | 3.79 µM (inactive) | > 52 µM (inactive) | 22.6 µM (inactive) | 16.8 µM (inactive) | 15.7 µM (inactive) | 15.5 µM (inactive) |
| OCC1COc2cc(Cl)c(Cl)cc2O1 (stereo unspecified) | > 10 µM (inactive) | > 10 µM (inactive) | > 10 µM (inactive) | > 10 µM (inactive) | > 10 µM (inactive) | > 10 µM (inactive) | > 10 µM (inactive) | > 10 µM (inactive) | > 10 µM (inactive) | > 10 µM (inactive) | > 10 µM (inactive) | – | > 10 µM (inactive) | > 10 µM (inactive) | > 10 µM (inactive) | > 10 µM (inactive) | > 10 µM (inactive) | > 10 µM (inactive) | > 10 µM (inactive) | > 10 µM (inactive) |
| CN(C)CCNC(=O)c1cccc2cc3cc(O)ccc3nc12 | 0.558 µM (active) | 1.1 µM (active) | 0.355 µM (active) | 1.33 µM (inactive) | 1.37 µM (inactive) | 1.06 µM (active) | 2.2 µM (inactive) | 1.11 µM (active) | 2.12 µM (inactive) | 1.13 µM (inactive) | 1.46 µM (inactive) | 1.26 µM (inactive) | < 0.0499 µM (active) | 1.43 µM (inactive) | 1.12 µM (active) | 0.473 µM (active) | 1.23 µM (inactive) | 1.93 µM (inactive) | – | – |
| N#CC(=S)Nc1ccc(F)cc1 | 86.1 µM (inactive) | > 100 µM (inactive) | 30.4 µM (inactive) | 40.2 µM (inactive) | 32.1 µM (inactive) | > 100 µM (inactive) | 45.4 µM (inactive) | 38.2 µM (inactive) | 70.3 µM (inactive) | 56.4 µM (inactive) | 83.9 µM (inactive) | 30.6 µM (inactive) | 63.8 µM (inactive) | 23.9 µM (inactive) | – | 64.7 µM (inactive) | 17 µM (inactive) | > 100 µM (inactive) | 60 µM (inactive) | 54.3 µM (inactive) |
| CCOC(=O)C(NC(=O)c1cccc(Cl)c1)(Nc1ccc(S(=O)(=O)Nc2cc(C)on2)cc1)C(F)(F)F (stereo unspecified) | > 100 µM (inactive) | > 100 µM (inactive) | > 100 µM (inactive) | – | > 100 µM (inactive) | > 100 µM (inactive) | > 100 µM (inactive) | > 100 µM (inactive) | > 100 µM (inactive) | > 100 µM (inactive) | > 100 µM (inactive) | > 100 µM (inactive) | > 100 µM (inactive) | > 100 µM (inactive) | > 100 µM (inactive) | > 100 µM (inactive) | > 100 µM (inactive) | > 100 µM (inactive) | > 100 µM (inactive) | > 100 µM (inactive) |
| COc1cc(C2c3cc4c(cc3[C@@H](Oc3ccc(F)cc3)C3COC(=O)[C@H]23)OCO4)cc(OC)c1O (stereo partly specified) | 0.347 µM (active) | 3.19 µM (inactive) | 0.341 µM (active) | 0.518 µM (active) | 1.32 µM (inactive) | 0.267 µM (active) | 2.28 µM (inactive) | 0.209 µM (active) | 4.03 µM (inactive) | 1.75 µM (inactive) | > 100 µM (inactive) | 0.59 µM (active) | 0.456 µM (active) | 0.457 µM (active) | > 67.5 µM (inactive) | 0.434 µM (active) | 0.527 µM (active) | 0.287 µM (active) | – | – |
| CCOc1cc(C=O)ccc1O [ETHYL VANILLIN] | > 100 µM (inactive) | > 100 µM (inactive) | > 100 µM (inactive) | – | > 100 µM (inactive) | > 100 µM (inactive) | > 100 µM (inactive) | > 100 µM (inactive) | > 100 µM (inactive) | > 100 µM (inactive) | > 100 µM (inactive) | > 100 µM (inactive) | > 100 µM (inactive) | > 100 µM (inactive) | > 100 µM (inactive) | > 100 µM (inactive) | > 100 µM (inactive) | 95.1 µM (inactive) | > 100 µM (inactive) | > 100 µM (inactive) |
